Data published in US5661136A, “2-halo-2'-fluoro ARA adenosines as antinoplastic agents” (priority 1994, dated 1997).

How the values were obtained:
HIV (strain IIIB) = test: Activity against HIV in cell culture; format: cell-based; details: CEM or MT cell lines in culture
DNA polymerase α = target: T1, DNA polymerase α (Homo sapiens, UniProt P09884); details: incorporated 5'-monophosphate; cited from earlier work
T1 sequence (P09884 1-1462): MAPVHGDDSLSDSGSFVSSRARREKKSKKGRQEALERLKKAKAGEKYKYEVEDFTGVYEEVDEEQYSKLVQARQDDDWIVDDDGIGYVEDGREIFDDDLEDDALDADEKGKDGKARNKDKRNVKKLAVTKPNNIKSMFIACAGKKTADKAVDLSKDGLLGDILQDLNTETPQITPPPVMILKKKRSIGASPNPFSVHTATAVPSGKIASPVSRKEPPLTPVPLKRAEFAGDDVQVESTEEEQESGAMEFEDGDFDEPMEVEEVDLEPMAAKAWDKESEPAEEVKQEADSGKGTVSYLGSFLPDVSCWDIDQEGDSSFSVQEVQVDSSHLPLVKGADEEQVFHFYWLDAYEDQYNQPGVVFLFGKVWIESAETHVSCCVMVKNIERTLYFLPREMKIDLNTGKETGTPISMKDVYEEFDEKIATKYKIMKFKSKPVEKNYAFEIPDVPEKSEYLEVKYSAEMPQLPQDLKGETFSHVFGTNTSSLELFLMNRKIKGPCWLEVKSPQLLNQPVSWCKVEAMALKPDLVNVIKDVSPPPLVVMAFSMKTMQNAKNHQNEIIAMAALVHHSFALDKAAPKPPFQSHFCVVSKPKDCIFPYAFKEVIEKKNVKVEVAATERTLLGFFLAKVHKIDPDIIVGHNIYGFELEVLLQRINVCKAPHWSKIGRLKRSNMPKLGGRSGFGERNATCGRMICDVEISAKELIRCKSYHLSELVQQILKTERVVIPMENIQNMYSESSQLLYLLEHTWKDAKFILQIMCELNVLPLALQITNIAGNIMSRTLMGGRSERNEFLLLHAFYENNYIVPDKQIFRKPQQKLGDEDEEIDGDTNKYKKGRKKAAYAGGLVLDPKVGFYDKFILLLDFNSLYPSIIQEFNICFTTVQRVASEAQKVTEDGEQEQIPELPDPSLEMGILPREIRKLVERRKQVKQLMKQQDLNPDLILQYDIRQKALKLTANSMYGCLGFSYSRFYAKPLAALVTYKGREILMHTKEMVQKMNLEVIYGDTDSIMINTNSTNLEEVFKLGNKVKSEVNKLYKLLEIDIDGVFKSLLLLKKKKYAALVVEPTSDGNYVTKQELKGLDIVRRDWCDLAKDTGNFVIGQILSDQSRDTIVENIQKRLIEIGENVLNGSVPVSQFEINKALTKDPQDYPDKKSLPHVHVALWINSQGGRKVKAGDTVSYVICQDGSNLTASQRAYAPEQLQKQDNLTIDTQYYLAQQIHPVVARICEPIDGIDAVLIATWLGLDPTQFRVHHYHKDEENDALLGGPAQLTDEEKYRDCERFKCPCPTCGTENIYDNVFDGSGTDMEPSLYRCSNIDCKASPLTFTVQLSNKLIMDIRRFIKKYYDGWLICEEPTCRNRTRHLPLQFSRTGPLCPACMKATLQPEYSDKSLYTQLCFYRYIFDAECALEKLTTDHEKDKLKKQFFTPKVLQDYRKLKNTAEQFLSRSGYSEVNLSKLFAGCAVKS

For Nc1nc(F)nc2c1ncn2[C@@H]1O[C@H](CO)C[C@@H]1F [compound 4b, 2-Fluoro-9-(2-3-dideoxy-2-fluoro-β-D-arabinofuranosyl)-9H-purin-6-amine], the “activity against HIV (strain IIIB)” value (HIV (strain IIIB)) was “slight activity”.
For Nc1nc(Cl)nc2c1ncn2[C@H]1C[C@H](O)[C@@H](COP(=O)(O)O)O1 [2-chloro-2'-deoxyadenosine 5'monophosphate], the “inhibition of further elongation of the DNA chain after incorporation by DNA polymerase α” value (DNA polymerase α) is listed as “did not inhibit the further elongation of the DNA chain to the degree that was seen with the incorporation of either”.
